Measured values from patent US20060276464A1, “Diarylsulfone sulfonamides and use thereof” (Wyeth, priority 2005, published 2006).
Structures can show the parent of a compound that is named as a salt. Where two headings read alike, the source gives them in different places.

Experiments:
SFRP-1 [1] = molecular target: T1, SFRP-1 (Homo sapiens, UniProt Q8N474); assay: Fluorescence polarization binding assay (competitive displacement of a probe compound from SFRP-1); settings: fluorescence anisotropy, 45 nM SFRP-1, 20 nM probe;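 further: test compound competes with a fluorescent probe held by SFRP-1, seen as a drop in probe anisotropy after incubation in darkness, with anisotropy as function of rising compound dose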
T1 sequence (Q8N474 32-314): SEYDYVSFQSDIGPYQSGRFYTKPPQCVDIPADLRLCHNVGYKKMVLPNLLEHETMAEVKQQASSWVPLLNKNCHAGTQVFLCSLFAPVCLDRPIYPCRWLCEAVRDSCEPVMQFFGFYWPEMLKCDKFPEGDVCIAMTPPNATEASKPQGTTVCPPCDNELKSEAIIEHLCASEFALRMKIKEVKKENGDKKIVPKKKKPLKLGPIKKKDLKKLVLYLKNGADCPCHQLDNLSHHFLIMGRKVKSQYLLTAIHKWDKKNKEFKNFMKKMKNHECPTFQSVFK

SFRP-1 [2] = molecular target: T1, SFRP-1; assay: Cell-based assay for in vitro measurement of SFRP-1/SARP2 antagonist activity (U2OS cells co-transfected with 16x TCF-tk-Luciferase reporter, Wnt and hSFRP-1); settings: for fold induction at 10 µM / fold induction at 15 µM: U2OS; for fold induction at 10 µM: read-out: Fold Induction with SFRP-1, U2OS cells, single dose 10 μM, luciferase reporter, fold induction over SFRP-1 control;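 on all read-outs here: U2OS cells co-transfected with a TCF-tk luciferase reporter, a Wnt vector, hSFRP-1 or empty vector and CMV-βgal, luciferase luminescence read in cell lysates alongside βgal activity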

Row | Structure (SMILES) | IC50 (SFRP-1 [1]) [nM] | fold induction at 10 µM (SFRP-1 [2]) | EC50 (SFRP-1 [2]) [nM] | fold induction at 15 µM (SFRP-1 [2]; read-out: Fold Induction with SFRP-1, Conc 15 μM, with SFRP-1, fold induction over SFRP-1 control, single dose) | fold induction at 15 µM (SFRP-1 [2]; read-out: Fold Induction without SFRP-1, Conc 15 μM, without SFRP-1, single dose)
1 | NCCNS(=O)(=O)c1cc(S(=O)(=O)c2ccccc2)ccc1C(F)(F)F [Example 762, N-(2-Aminoethyl)-5-(phenylsulfonyl)-2-(trifluoromethyl)benzenesulfonamide hydrochloride] | 2100 | 2.2 |  |  | 
2 | CN(CCNS(=O)(=O)c1cc(S(=O)(=O)c2ccccc2)ccc1C(F)(F)F)C(=O)OC(C)(C)C [Example 793, tert-Butyl methyl[2-({[5-(phenylsulfonyl)-2-(trifluoromethyl)phenyl]sulfonyl}amino)ethyl]carbamate] | 600 | 2.5 | 1540 |  | 
3 | CN(CCNS(=O)(=O)c1cc(S(=O)(=O)c2ccccc2)ccc1C(F)(F)F)C(=O)C1CCCCC1 [Example 846, N-methyl-N-[2-({[5-(phenylsulfonyl)-2-(trifluoromethyl)phenyl]sulfonyl}amino)ethyl]cyclohexanecarboxamide] | 300 | 3.2 | 2670 |  | 
4 | O=C([C@@H]1CCCN1C(=O)c1ccc(Cl)nc1)N1CCC(NS(=O)(=O)c2cc(S(=O)(=O)c3ccccc3)ccc2C(F)(F)F)CC1 [Example 1079, N-(1-{1-[(6-chloropyridin-3-yl)carbonyl]-L-prolyl}piperidin-4-yl)-5-(phenylsulfonyl)-2-(trifluoromethyl)benzenesulfonamide] | 40 |  | 329 |  | 
5 | COC(=O)C1CCCC(NS(=O)(=O)c2cc(S(=O)(=O)c3ccccc3)ccc2C(C)C)C1 (stereo not shown) [Example 932, methyl 3-({[2-isopropyl-5-(phenylsulfonyl)phenyl]sulfonyl}amino)cyclohexanecarboxylate] | 3000 | 2.8 | 1860 |  | 
6 | O=C(O)[C@H]1CC[C@H](CNS(=O)(=O)c2cc(S(=O)(=O)c3ccccc3)ccc2C(F)(F)F)CC1 [Example 969, trans-4-[({[5-(phenylsulfonyl)-2-(trifluoromethyl)phenyl]sulfonyl}amino)methyl]cyclohexanecarboxylic acid] | 180 | 3.1 | 588 |  | 
7 | O=S(=O)(NCC(O)c1ccccn1)c1cc(S(=O)(=O)c2ccccc2)ccc1C(F)(F)F (stereo not shown) [Example 757, N-(2-hydroxy-2-pyridin-2-ylethyl)-5-(phenylsulfonyl)-2-(trifluoromethyl)benzenesulfonamide] | 1100 | 3.1 |  |  | 
8 | COc1ccc(CCNS(=O)(=O)c2cc(S(=O)(=O)c3ccccc3)ccc2C(F)(F)F)cc1 [Example 939, N-[2-(4-methoxyphenyl)ethyl]-5-(phenylsulfonyl)-2-(trifluoromethyl)benzenesulfonamide] | 700 | 2.2 |  |  | 
9 | O=S(=O)(NCc1ccc(N2CCCC2)nc1)c1cc(S(=O)(=O)c2ccccc2)ccc1C(F)(F)F [Example 1032, 5-(phenylsulfonyl)-N-[(6-pyrrolidin-1-ylpyridin-3-yl)methyl]-2-(trifluoromethyl)benzenesulfonamide] | 500 |  | 1440 |  | 
10 | CCCCNC(=O)N(C)CCNS(=O)(=O)c1cc(S(=O)(=O)c2ccccc2)ccc1C(F)(F)F [Example 831, N-(2-[[(butylamino)carbonyl](methyl)amino]ethyl}-5-(phenylsulfonyl)-2-(trifluoromethyl)benzenesulfonamide] | 260 | 3.7 | 1460 |  | 
11 | Cc1ccc(S(=O)(=O)c2ccccc2)cc1S(=O)(=O)NC1CCN(C(=O)c2ccco2)CC1 [Example 449, N-[1-(2-furoyl)piperidin-4-yl]-2-methyl-5-(phenylsulfonyl)benzenesulfonamide] | 3000 |  |  | 2.8 | 1.1
